Results published in ChEMBL document CHEMBL1201862, “PubChem BioAssay data set” (2004).
The source made the active and inactive calls.

What was measured:
[1] = biological target: T1, Sentrin-specific protease 8 (Homo sapiens, UniProt Q96LD8); assay type: functional
T1 sequence (Q96LD8 whole entry): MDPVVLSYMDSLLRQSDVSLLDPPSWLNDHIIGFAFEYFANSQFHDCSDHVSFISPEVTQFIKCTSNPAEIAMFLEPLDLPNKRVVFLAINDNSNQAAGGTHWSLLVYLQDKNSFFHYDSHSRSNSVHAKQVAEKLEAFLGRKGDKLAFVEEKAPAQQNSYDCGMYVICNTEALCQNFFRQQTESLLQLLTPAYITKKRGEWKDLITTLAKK

[2] = biological target: T1, Sentrin-specific protease 8; assay type: functional; remark: listed apart in the source
[3] = biological target: T1, Sentrin-specific protease 8; assay type: functional; remark: listed apart in the source
[4] = biological target: T2, Histone-lysine N-methyltransferase NSD2 (Homo sapiens, UniProt O96028); assay type: biochemical
T2 sequence (O96028 whole entry): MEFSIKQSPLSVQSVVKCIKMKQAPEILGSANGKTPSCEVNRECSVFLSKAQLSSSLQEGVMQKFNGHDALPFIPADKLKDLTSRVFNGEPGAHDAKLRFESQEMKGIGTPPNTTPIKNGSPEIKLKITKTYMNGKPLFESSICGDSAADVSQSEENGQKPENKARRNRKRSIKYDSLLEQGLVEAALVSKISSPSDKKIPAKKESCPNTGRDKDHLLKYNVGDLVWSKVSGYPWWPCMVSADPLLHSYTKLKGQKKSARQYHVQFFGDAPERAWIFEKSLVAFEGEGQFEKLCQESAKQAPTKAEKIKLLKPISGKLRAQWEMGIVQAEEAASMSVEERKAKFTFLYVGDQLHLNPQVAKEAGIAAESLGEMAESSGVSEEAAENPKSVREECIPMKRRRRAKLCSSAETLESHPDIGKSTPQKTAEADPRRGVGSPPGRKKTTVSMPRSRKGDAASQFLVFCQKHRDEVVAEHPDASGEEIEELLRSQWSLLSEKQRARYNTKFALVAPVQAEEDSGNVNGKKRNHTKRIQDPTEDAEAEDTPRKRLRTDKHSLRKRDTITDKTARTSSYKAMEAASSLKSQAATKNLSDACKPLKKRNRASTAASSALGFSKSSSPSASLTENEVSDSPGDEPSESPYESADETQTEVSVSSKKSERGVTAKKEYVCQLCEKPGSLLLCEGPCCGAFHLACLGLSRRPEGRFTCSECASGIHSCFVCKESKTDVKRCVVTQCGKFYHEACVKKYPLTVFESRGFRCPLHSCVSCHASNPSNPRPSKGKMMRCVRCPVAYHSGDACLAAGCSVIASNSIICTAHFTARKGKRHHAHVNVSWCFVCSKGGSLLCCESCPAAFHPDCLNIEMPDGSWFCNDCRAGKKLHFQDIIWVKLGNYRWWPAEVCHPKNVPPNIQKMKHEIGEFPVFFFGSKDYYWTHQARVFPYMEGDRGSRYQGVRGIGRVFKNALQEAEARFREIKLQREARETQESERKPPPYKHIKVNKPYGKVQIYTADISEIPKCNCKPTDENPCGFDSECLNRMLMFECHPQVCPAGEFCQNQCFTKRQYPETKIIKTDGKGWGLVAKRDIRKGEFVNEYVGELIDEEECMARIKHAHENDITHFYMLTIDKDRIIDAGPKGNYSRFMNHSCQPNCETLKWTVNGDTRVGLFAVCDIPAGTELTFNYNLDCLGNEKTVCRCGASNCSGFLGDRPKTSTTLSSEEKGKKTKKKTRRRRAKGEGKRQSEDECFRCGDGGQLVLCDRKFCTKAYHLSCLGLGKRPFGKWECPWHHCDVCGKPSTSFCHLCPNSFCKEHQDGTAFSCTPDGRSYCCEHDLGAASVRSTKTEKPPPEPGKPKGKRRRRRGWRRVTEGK

[5] = biological target: Tyrosyl-DNA phosphodiesterase 2 (Homo sapiens, UniProt O95551); assay: potency against TDP2 phosphodiesterase activity – biochemical, epi absorbance, IC50, dose response (AID 743297)
Tyrosyl-DNA phosphodiesterase 2, sequence (O95551 whole entry): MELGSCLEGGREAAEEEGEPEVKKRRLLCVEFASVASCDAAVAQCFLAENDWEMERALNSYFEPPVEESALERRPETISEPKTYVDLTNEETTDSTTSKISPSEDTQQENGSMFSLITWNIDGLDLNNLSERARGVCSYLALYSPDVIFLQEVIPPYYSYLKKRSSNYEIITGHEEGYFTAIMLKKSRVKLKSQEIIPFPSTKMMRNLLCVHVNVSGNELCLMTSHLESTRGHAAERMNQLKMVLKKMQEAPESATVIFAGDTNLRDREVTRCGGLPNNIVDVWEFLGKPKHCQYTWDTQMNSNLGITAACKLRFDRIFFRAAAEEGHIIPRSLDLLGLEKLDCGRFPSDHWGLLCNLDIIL

[6] = biological target: Serine/threonine-protein kinase PAK 4 (Homo sapiens, UniProt O96013); assay type: functional;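 further: value obtained within a kinome profiling panel in which PAK4 was one of the panel members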
Serine/threonine-protein kinase PAK 4, sequence (O96013 whole entry): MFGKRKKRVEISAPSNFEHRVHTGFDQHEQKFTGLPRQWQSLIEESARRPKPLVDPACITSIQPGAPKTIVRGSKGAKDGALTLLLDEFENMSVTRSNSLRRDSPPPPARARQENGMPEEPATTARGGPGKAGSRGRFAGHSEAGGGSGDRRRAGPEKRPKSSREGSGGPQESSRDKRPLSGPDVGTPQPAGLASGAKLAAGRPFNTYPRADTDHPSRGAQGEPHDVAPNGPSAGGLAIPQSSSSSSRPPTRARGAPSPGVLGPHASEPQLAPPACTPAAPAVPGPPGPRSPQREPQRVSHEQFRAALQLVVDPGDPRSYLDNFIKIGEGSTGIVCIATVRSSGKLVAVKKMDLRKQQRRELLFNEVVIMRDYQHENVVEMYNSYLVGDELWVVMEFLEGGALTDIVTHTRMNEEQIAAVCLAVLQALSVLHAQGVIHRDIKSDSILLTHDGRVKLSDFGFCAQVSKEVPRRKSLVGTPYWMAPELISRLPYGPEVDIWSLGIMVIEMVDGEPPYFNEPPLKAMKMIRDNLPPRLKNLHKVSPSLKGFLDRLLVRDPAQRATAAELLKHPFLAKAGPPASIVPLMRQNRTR

[7] = biological target: Cell division cycle 7-related protein kinase (Homo sapiens, UniProt O00311); assay type: functional;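 further: value obtained from a kinome-wide kinase panel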
Cell division cycle 7-related protein kinase, sequence (O00311 whole entry): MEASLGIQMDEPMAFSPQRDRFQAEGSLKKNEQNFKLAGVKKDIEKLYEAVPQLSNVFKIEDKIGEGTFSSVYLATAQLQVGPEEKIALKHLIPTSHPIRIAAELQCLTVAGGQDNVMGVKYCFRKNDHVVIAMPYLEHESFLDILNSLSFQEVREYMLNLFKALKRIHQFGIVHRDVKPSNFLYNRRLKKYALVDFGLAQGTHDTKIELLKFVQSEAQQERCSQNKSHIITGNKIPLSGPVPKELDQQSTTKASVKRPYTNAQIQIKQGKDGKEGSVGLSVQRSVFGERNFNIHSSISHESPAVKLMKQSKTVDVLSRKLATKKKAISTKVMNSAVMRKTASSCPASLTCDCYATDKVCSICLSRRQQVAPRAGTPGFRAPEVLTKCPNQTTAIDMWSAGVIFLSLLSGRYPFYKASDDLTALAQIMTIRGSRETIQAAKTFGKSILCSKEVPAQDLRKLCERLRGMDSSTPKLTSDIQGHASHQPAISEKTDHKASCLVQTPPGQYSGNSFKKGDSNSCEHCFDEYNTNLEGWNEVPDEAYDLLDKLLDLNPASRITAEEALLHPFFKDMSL

[8] = biological target: Interleukin-1 receptor-associated kinase 1 (Homo sapiens, UniProt P51617); assay type: functional;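 further: IRAK1 tested as one member of a kinome panel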
Interleukin-1 receptor-associated kinase 1, sequence (P51617 whole entry, canonical isoform): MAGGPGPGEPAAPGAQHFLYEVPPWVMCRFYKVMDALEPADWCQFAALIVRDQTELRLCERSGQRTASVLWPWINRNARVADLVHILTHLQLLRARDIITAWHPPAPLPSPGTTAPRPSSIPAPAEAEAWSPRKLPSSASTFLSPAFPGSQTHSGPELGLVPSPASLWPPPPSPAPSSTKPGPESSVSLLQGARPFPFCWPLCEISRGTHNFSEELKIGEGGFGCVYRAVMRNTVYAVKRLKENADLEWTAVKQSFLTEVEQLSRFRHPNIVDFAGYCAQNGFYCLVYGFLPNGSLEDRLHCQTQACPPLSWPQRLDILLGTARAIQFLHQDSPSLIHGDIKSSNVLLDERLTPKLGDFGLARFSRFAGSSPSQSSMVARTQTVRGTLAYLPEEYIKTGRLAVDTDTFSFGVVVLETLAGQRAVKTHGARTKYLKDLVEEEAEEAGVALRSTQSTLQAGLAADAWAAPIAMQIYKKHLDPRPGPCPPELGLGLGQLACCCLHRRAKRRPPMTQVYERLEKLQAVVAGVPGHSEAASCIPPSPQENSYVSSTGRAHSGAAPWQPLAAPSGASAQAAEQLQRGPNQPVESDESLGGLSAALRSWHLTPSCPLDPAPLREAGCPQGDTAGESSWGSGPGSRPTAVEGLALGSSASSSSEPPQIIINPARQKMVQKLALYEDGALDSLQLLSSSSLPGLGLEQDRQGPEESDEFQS

[9] = biological target: Casein kinase I isoform delta (Homo sapiens, UniProt P48730); assay type: functional;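 further: measured as one member (CSNK1D) of a kinome panel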
Casein kinase I isoform delta, sequence (P48730 whole entry, canonical isoform): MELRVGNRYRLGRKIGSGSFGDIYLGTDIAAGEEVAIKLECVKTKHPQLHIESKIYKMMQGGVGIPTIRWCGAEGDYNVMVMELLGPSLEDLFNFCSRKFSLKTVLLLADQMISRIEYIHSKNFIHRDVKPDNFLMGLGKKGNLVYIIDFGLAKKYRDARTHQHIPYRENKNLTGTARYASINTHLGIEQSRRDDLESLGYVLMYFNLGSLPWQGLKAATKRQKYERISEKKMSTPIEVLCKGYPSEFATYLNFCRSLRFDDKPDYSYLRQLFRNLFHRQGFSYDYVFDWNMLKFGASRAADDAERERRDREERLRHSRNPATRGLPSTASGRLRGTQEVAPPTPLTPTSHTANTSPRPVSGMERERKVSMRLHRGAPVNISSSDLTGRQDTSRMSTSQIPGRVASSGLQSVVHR

Caspase-3 = biological target: T3, Caspase-3 (Homo sapiens, UniProt P42574); assay: SAR Analysis of small molecule inhibitors of Sentrin-specific proteases (SENPs) using a Caspase-3 Selectivity assay. [Related pubchem assays (depositor defined):AID2540, AID2599, AID434973, AID489001]; assay type: functional
T3 sequence (P42574 whole entry): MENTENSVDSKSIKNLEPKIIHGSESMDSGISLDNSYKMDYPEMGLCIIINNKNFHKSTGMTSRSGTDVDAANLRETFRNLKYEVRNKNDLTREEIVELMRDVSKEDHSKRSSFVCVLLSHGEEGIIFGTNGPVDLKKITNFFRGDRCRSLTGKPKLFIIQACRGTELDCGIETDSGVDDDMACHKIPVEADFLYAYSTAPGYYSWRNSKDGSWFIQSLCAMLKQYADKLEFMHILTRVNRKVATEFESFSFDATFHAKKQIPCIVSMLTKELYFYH

| SMILES | IC50 [1] | IC50 [2] | IC50 [3] | AC50 [4] | IC50 [5] | Ki [6] | Ki [7] | Ki [8] | Ki [9] | IC50 (Caspase-3) |
| --- | --- | --- | --- | --- | --- | --- | --- | --- | --- | --- |
| Cc1c(NC(=O)C(C)OC(=O)c2ccc([N+](=O)[O-])s2)c(=O)n(-c2ccccc2)n1C (centres undefined) | 6.5 µM (active) | 7.35 µM (active) | 1.99 µM (active) | > 20 µM (inactive) | 49.5 µM (inactive) |  |  |  |  |  |
| CC(N)C1CCC(C(=O)Nc2ccnc3[nH]ccc23)CC1 (centres undefined) |  |  |  |  |  | 1.58 µM (active) | > 1.26 µM (inactive) | 7.94 µM (active) | > 7.94 µM (inactive) |  |
| COc1cc(Br)c(C(=O)c2nccc3cc(OC)c(OC)cc23)cc1OC |  | 0.377 µM (active) | 2.29 µM (active) | 0.416 µM (active) | 3.53 µM (active) |  |  |  |  | 23.9 µM (active) |
